Test results from the supplement of paper PMC11451515.

System: P12-Ichikawa
Test: cell viability relative to DMSO control; higher = less cytotoxic
Details: 48 h
In short: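 Before seeding, each leukemia line was adapted for at least four passages in each medium. NOMO1 or SEM cells (500 cells/well) and P12-Ichikawa cells (1000 cells/well) went into 1536-well plates at 5 μl, then received library compounds in DMSO by pin dosing across 11 threefold concentrations, 47 μM to 0.79 nM. Readout was CellTiter-Glo One luminescence after 48 h at 37°C, and viability is given as a per-plate percentage of DMSO wells, with cell-free wells as background.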

[1] = HPLM + 10% dialyzed FBS, 0.000781 µM
[2] = HPLM + 10% dialyzed FBS, 0.00234 µM
[3] = HPLM + 10% dialyzed FBS, 0.00702 µM
[4] = HPLM + 10% dialyzed FBS, 0.0211 µM
[5] = HPLM + 10% dialyzed FBS, 0.0632 µM
[6] = HPLM + 10% dialyzed FBS, 0.19 µM
[7] = HPLM + 10% dialyzed FBS, 0.569 µM
[8] = HPLM + 10% dialyzed FBS, 1.71 µM
[9] = HPLM + 10% dialyzed FBS, 5.12 µM
[10] = HPLM + 10% dialyzed FBS, 15.4 µM
[11] = HPLM + 10% dialyzed FBS, 46.1 µM
[12] = RPMI 5 mM glucose + 10% FBS, 0.000781 µM
[13] = RPMI 5 mM glucose + 10% FBS, 0.00234 µM
[14] = RPMI 5 mM glucose + 10% FBS, 0.00702 µM
[15] = RPMI 5 mM glucose + 10% FBS, 0.0211 µM
[16] = RPMI 5 mM glucose + 10% FBS, 0.0632 µM
[17] = RPMI 5 mM glucose + 10% FBS, 0.19 µM
[18] = RPMI 5 mM glucose + 10% FBS, 0.569 µM
[19] = RPMI 5 mM glucose + 10% FBS, 1.71 µM
[20] = RPMI 5 mM glucose + 10% FBS, 5.12 µM
[21] = RPMI 5 mM glucose + 10% FBS, 15.4 µM
[22] = RPMI 5 mM glucose + 10% FBS, 46.1 µM
[23] = RPMI 5 mM glucose + 10% dialyzed FBS, 0.000781 µM
[24] = RPMI 5 mM glucose + 10% dialyzed FBS, 0.00234 µM
[25] = RPMI 5 mM glucose + 10% dialyzed FBS, 0.00702 µM
[26] = RPMI 5 mM glucose + 10% dialyzed FBS, 0.0211 µM
[27] = RPMI 5 mM glucose + 10% dialyzed FBS, 0.0632 µM
[28] = RPMI 5 mM glucose + 10% dialyzed FBS, 0.19 µM
[29] = RPMI 5 mM glucose + 10% dialyzed FBS, 0.569 µM
[30] = RPMI 5 mM glucose + 10% dialyzed FBS, 1.71 µM
[31] = RPMI 5 mM glucose + 10% dialyzed FBS, 5.12 µM
[32] = RPMI 5 mM glucose + 10% dialyzed FBS, 15.4 µM
[33] = RPMI 5 mM glucose + 10% dialyzed FBS, 46.1 µM

COc1c(N2C[C@@H]3CCCN[C@@H]3C2)c(F)cc2c(=O)c(C(=O)O)cn(C3CC3)c12.Cl.O
cell viability [1]: 98.4% | cell viability [2]: 114% | cell viability [3]: 107% | cell viability [4]: 109% | cell viability [5]: 103% | cell viability [6]: 114% | cell viability [7]: 102% | cell viability [8]: 99.4% | cell viability [9]: 78.9% | cell viability [10]: 63% | cell viability [11]: 70.6% | cell viability [12]: 116% | cell viability [13]: 112% | cell viability [14]: 109% | cell viability [15]: 112% | cell viability [16]: 106% | cell viability [17]: 107% | cell viability [18]: 91.9% | cell viability [19]: 92.2% | cell viability [20]: 53.8% | cell viability [21]: 12.9% | cell viability [22]: 54% | cell viability [23]: 98.7% | cell viability [24]: 99.5% | cell viability [25]: 107% | cell viability [26]: 109% | cell viability [27]: 98.6% | cell viability [28]: 97% | cell viability [29]: 91% | cell viability [30]: 88.5% | cell viability [31]: 53.4% | cell viability [32]: 17.5% | cell viability [33]: 42.3%

COc1cc2cc(c1Cl)N(C)C(=O)C[C@H](OC(=O)C(C)C)[C@]1(C)O[C@@H]1[C@H](C)[C@@H]1C[C@@](O)(NC(=O)O1)[C@H](OC)/C=C/C=C(\C)C2
cell viability [1]: 8.03% | cell viability [2]: 10.4% | cell viability [3]: 10% | cell viability [4]: 9.14% | cell viability [5]: 10.7% | cell viability [6]: 8.31% | cell viability [7]: 8.37% | cell viability [8]: 6.69% | cell viability [9]: 6.57% | cell viability [10]: 5.07% | cell viability [11]: 2.08% | cell viability [12]: 9.26% | cell viability [13]: 12.1% | cell viability [14]: 11.2% | cell viability [15]: 11.8% | cell viability [16]: 11% | cell viability [17]: 9.9% | cell viability [18]: 8.75% | cell viability [19]: 8.41% | cell viability [20]: 6.23% | cell viability [21]: 5.36% | cell viability [22]: 2% | cell viability [23]: 17.5% | cell viability [24]: 18.1% | cell viability [25]: 16.5% | cell viability [26]: 14.6% | cell viability [27]: 14.3% | cell viability [28]: 12.9% | cell viability [29]: 12.2% | cell viability [30]: 10.2% | cell viability [31]: 8.98% | cell viability [32]: 8.07% | cell viability [33]: 2.84%

CC(C)[C@H]1C(=O)N[C@H](CO)Cc2c[nH]c3cccc(c23)N1C
cell viability [1]: 87.3% | cell viability [2]: 96% | cell viability [3]: 98.3% | cell viability [4]: 108% | cell viability [5]: 110% | cell viability [6]: 99.2% | cell viability [7]: 92.2% | cell viability [8]: 88.1% | cell viability [9]: 74.2% | cell viability [10]: 83.9% | cell viability [11]: 88.8% | cell viability [12]: 91.5% | cell viability [13]: 98.8% | cell viability [14]: 104% | cell viability [15]: 105% | cell viability [16]: 110% | cell viability [17]: 98.9% | cell viability [18]: 76.9% | cell viability [19]: 75.4% | cell viability [20]: 63.7% | cell viability [21]: 65.4% | cell viability [22]: 74.5% | cell viability [23]: 87% | cell viability [24]: 99.7% | cell viability [25]: 97.9% | cell viability [26]: 101% | cell viability [27]: 107% | cell viability [28]: 90.3% | cell viability [29]: 79.1% | cell viability [30]: 70.6% | cell viability [31]: 58% | cell viability [32]: 64.5% | cell viability [33]: 65.3%

CC(C)[C@]12O[C@H]1[C@@H]3O[C@@]34[C@@]5(C)CC\C6=C(COC6=O)/[C@@H]5C[C@@H]7O[C@]47[C@@H]2O
cell viability [1]: 97.5% | cell viability [2]: 9.15% | cell viability [3]: 6.65% | cell viability [4]: 7.98% | cell viability [5]: 9.04% | cell viability [6]: 8.65% | cell viability [7]: 9.22% | cell viability [8]: 8.95% | cell viability [9]: 8.4% | cell viability [10]: 6.67% | cell viability [11]: 4.18% | cell viability [12]: 102% | cell viability [13]: 16.6% | cell viability [14]: 8.24% | cell viability [15]: 5.66% | cell viability [16]: 7.99% | cell viability [17]: 8.04% | cell viability [18]: 7% | cell viability [19]: 6.95% | cell viability [20]: 5.74% | cell viability [21]: 4.33% | cell viability [22]: 2.61% | cell viability [23]: 101% | cell viability [24]: 10.6% | cell viability [25]: 8.79% | cell viability [26]: 7.77% | cell viability [27]: 9.01% | cell viability [28]: 8.98% | cell viability [29]: 9.99% | cell viability [30]: 9.74% | cell viability [31]: 9.21% | cell viability [32]: 6.99% | cell viability [33]: 5.18%

CCCCCN(C)CCC(O)(P(=O)([O-])O)P(=O)(O)O
cell viability [1]: 88% | cell viability [2]: 88.1% | cell viability [3]: 87.1% | cell viability [4]: 96% | cell viability [5]: 95% | cell viability [6]: 97.6% | cell viability [7]: 99.5% | cell viability [8]: 92.9% | cell viability [9]: 93.4% | cell viability [10]: 99.2% | cell viability [11]: 92.4% | cell viability [12]: 81.4% | cell viability [13]: 86.5% | cell viability [14]: 91.3% | cell viability [15]: 95.6% | cell viability [16]: 85.8% | cell viability [17]: 86.6% | cell viability [18]: 94% | cell viability [19]: 89.7% | cell viability [20]: 91.3% | cell viability [21]: 92.6% | cell viability [22]: 83.4% | cell viability [23]: 79% | cell viability [24]: 85.2% | cell viability [25]: 81.1% | cell viability [26]: 95.3% | cell viability [27]: 88.9% | cell viability [28]: 84.5% | cell viability [29]: 88.9% | cell viability [30]: 79.4% | cell viability [31]: 86.1% | cell viability [32]: 87.8% | cell viability [33]: 86.9%

COCCCC/C(=N\OCCN)c1ccc(C(F)(F)F)cc1
cell viability [1]: 98.4% | cell viability [2]: 87.1% | cell viability [3]: 91.2% | cell viability [4]: 91% | cell viability [5]: 94.9% | cell viability [6]: 80.8% | cell viability [7]: 74.4% | cell viability [8]: 85% | cell viability [9]: 80.9% | cell viability [10]: 72.2% | cell viability [11]: 63.5% | cell viability [12]: 83.5% | cell viability [13]: 81.8% | cell viability [14]: 91.7% | cell viability [15]: 79.8% | cell viability [16]: 95.8% | cell viability [17]: 72% | cell viability [18]: 62.2% | cell viability [19]: 83.2% | cell viability [20]: 80.3% | cell viability [21]: 67% | cell viability [22]: 41.9% | cell viability [23]: 79.8% | cell viability [24]: 80.7% | cell viability [25]: 76.9% | cell viability [26]: 84.6% | cell viability [27]: 84.4% | cell viability [28]: 80.3% | cell viability [29]: 77.9% | cell viability [30]: 78.8% | cell viability [31]: 74.5% | cell viability [32]: 77.2% | cell viability [33]: 52.7%
